Results: the supplement of paper PMC10307832

Tests used:
Assay in all cases: relative viability (nuclei count vs DMSO), 5 days (fraction); higher = more cells survive
COR-L23 = system: COR-L23
In short: (§1)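 For relative viability, nuclei counts in treated wells were divided by those in vehicle wells. Lung cancer cell lines had been pin-tool dosed in 1536-well plates the day after seeding and cultured for 5 days, then fixed and stained in one step (final 0.05% Triton X-100, 1% formaldehyde, 1 ug/ml Hoechst) and imaged at 4×. Doses were one drug alone or a fixed anchor-drug dose plus five library-drug doses (not always all listed) in √10 steps, and values are duplicate-plate medians.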

NCI-H322M = system: NCI-H322M
In short: as §1

NCI-H1734 = system: NCI-H1734
In short: as §1

H3255 = system: H3255
In short: as §1

NCI-H647 = system: NCI-H647
In short: as §1

NCI-H23 = system: NCI-H23
In short: as §1

LK-2 = system: LK-2
In short: as §1

PC-14 = system: PC-14
In short: as §1

NCI-H2087 = system: NCI-H2087
In short: as §1

LXF-289 = system: LXF-289
In short: as §1

NCI-H2085 = system: NCI-H2085
In short: as §1

UMC-11 = system: UMC-11
In short: as §1

NCI-H2347 = system: NCI-H2347
In short: as §1

NCI-H1651 = system: NCI-H1651
In short: as §1

EKVX = system: EKVX
In short: as §1

RERF-LC-KJ = system: RERF-LC-KJ
In short: as §1

NCI-H3122 = system: NCI-H3122
In short: as §1

NCI-H358 = system: NCI-H358
In short: as §1

A-427 = system: A-427
In short: as §1

NCI-H1993 = system: NCI-H1993
In short: as §1

SK-LU-1 = system: SK-LU-1
In short: as §1

NCI-H1437 = system: NCI-H1437
In short: as §1

NCI-H460 = system: NCI-H460
In short: as §1

For `Cc1cn(-c2cc(NC(=O)c3ccc(C)c(Nc4nccc(-c5cccnc5)n4)c3)cc(C(F)(F)F)c2)cn1` [Nilotinib] + CS(=O)(=O)CCNCc1ccc(-c2ccc3ncnc(Nc4ccc(OCc5cccc(F)c5)c(Cl)c4)c3c2)o1 [Lapatinib] (partner 2 µM), the relative viability (COR-L23; first compound 0.001 µM) was 0.834, the relative viability (COR-L23; first compound 0.003162 µM) was 1.53 and the relative viability (COR-L23; first compound 0.01 µM) was 1.7. For the same molecule, the relative viability (COR-L23; first compound 0.03162 µM) was 0.822, the relative viability (COR-L23; first compound 0.1 µM) was 0.825 and the relative viability (NCI-H322M; first compound 0.001 µM) was 0.557. It also gave a relative viability (NCI-H322M; first compound 0.003162 µM) of 0.515, a relative viability (NCI-H322M; first compound 0.03162 µM) of 0.596 and a relative viability (NCI-H322M; first compound 0.1 µM) of 0.649. It also gave a relative viability (NCI-H1734; first compound 0.001 µM) of 1, a relative viability (NCI-H1734; first compound 0.003162 µM) of 1.14 and a relative viability (NCI-H1734; first compound 0.01 µM) of 1.27. It also gave a relative viability (NCI-H1734; first compound 0.03162 µM) of 0.808, a relative viability (NCI-H1734; first compound 0.1 µM) of 0.517 and a relative viability (H3255; first compound 0.001 µM) of 0.259. It also gave a relative viability (H3255; first compound 0.003162 µM) of 0.224, a relative viability (H3255; first compound 0.01 µM) of 0.236 and a relative viability (H3255; first compound 0.03162 µM) of 0.24. For the same molecule, the relative viability (H3255; first compound 0.1 µM) was 0.217, the relative viability (NCI-H647; first compound 0.001 µM) was 0.978 and the relative viability (NCI-H647; first compound 0.003162 µM) was 1.42. It also gave a relative viability (NCI-H647; first compound 0.03162 µM) of 0.672, a relative viability (NCI-H647; first compound 0.1 µM) of 0.723 and a relative viability (NCI-H23; first compound 0.001 µM) of 1.01. The relative viability (NCI-H23; first compound 0.003162 µM) was 1.13, the relative viability (NCI-H23; first compound 0.01 µM) was 1.4 and the relative viability (NCI-H23; first compound 0.03162 µM) was 0.87. It also gave a relative viability (NCI-H23; first compound 0.1 µM) of 0.704, a relative viability (LK-2; first compound 0.001 µM) of 0.854 and a relative viability (LK-2; first compound 0.003162 µM) of 0.754. The relative viability (LK-2; first compound 0.01 µM) was 1.05, the relative viability (LK-2; first compound 0.03162 µM) was 0.875 and the relative viability (LK-2; first compound 0.1 µM) was 0.822. For the same molecule, the relative viability (PC-14; first compound 0.001 µM) was 0.328, the relative viability (PC-14; first compound 0.003162 µM) was 0.422 and the relative viability (PC-14; first compound 0.01 µM) was 0.367. It also gave a relative viability (PC-14; first compound 0.03162 µM) of 0.318, a relative viability (PC-14; first compound 0.1 µM) of 0.277 and a relative viability (NCI-H2087; first compound 0.001 µM) of 0.62. The relative viability (NCI-H2087; first compound 0.003162 µM) was 1.21, the relative viability (NCI-H2087; first compound 0.01 µM) was 1.17 and the relative viability (NCI-H2087; first compound 0.03162 µM) was 0.686. It also gave a relative viability (NCI-H2087; first compound 0.1 µM) of 0.289, a relative viability (LXF-289; first compound 0.001 µM) of 0.839 and a relative viability (LXF-289; first compound 0.003162 µM) of 1.05. The relative viability (LXF-289; first compound 0.01 µM) was 0.927, the relative viability (LXF-289; first compound 0.03162 µM) was 0.941 and the relative viability (LXF-289; first compound 0.1 µM) was 0.63. It also gave a relative viability (NCI-H2085; first compound 0.001 µM) of 0.822, a relative viability (NCI-H2085; first compound 0.003162 µM) of 0.817 and a relative viability (NCI-H2085; first compound 0.01 µM) of 0.748. The relative viability (NCI-H2085; first compound 0.03162 µM) was 0.66, the relative viability (NCI-H2085; first compound 0.1 µM) was 0.599 and the relative viability (UMC-11; first compound 0.001 µM) was 0.995. For the same molecule, the relative viability (UMC-11; first compound 0.003162 µM) was 1.2, the relative viability (UMC-11; first compound 0.01 µM) was 1.27 and the relative viability (UMC-11; first compound 0.03162 µM) was 0.851. For the same molecule, the relative viability (UMC-11; first compound 0.1 µM) was 0.255, the relative viability (NCI-H2347; first compound 0.001 µM) was 0.821 and the relative viability (NCI-H2347; first compound 0.003162 µM) was 1.01. For the same molecule, the relative viability (NCI-H2347; first compound 0.01 µM) was 0.823, the relative viability (NCI-H2347; first compound 0.03162 µM) was 0.817 and the relative viability (NCI-H2347; first compound 0.1 µM) was 0.6. For the same molecule, the relative viability (NCI-H1651; first compound 0.001 µM) was 0.815, the relative viability (NCI-H1651; first compound 0.003162 µM) was 0.803 and the relative viability (NCI-H1651; first compound 0.01 µM) was 1.06. The relative viability (NCI-H1651; first compound 0.03162 µM) was 0.737, the relative viability (NCI-H1651; first compound 0.1 µM) was 0.359 and the relative viability (EKVX; first compound 0.001 µM) was 0.211. The relative viability (EKVX; first compound 0.003162 µM) was 0.195, the relative viability (EKVX; first compound 0.01 µM) was 0.214 and the relative viability (EKVX; first compound 0.03162 µM) was 0.187. The relative viability (EKVX; first compound 0.1 µM) was 0.204, the relative viability (RERF-LC-KJ; first compound 0.001 µM) was 0.874 and the relative viability (RERF-LC-KJ; first compound 0.003162 µM) was 0.986. It also gave a relative viability (RERF-LC-KJ; first compound 0.01 µM) of 0.977, a relative viability (RERF-LC-KJ; first compound 0.03162 µM) of 0.882 and a relative viability (RERF-LC-KJ; first compound 0.1 µM) of 0.888. For the same molecule, the relative viability (NCI-H3122; first compound 0.001 µM) was 0.988, the relative viability (NCI-H3122; first compound 0.003162 µM) was 1.07 and the relative viability (NCI-H3122; first compound 0.01 µM) was 0.991. For the same molecule, the relative viability (NCI-H3122; first compound 0.03162 µM) was 1.01, the relative viability (NCI-H3122; first compound 0.1 µM) was 0.98 and the relative viability (NCI-H358; first compound 0.001 µM) was 0.442. For the same molecule, the relative viability (NCI-H358; first compound 0.003162 µM) was 0.529, the relative viability (NCI-H358; first compound 0.01 µM) was 0.539 and the relative viability (NCI-H358; first compound 0.03162 µM) was 0.438. It also gave a relative viability (NCI-H358; first compound 0.1 µM) of 0.325, a relative viability (A-427; first compound 0.001 µM) of 1.05 and a relative viability (A-427; first compound 0.01 µM) of 1.13. It also gave a relative viability (A-427; first compound 0.03162 µM) of 1.08, a relative viability (A-427; first compound 0.1 µM) of 0.211 and a relative viability (NCI-H1993; first compound 0.001 µM) of 0.797. It also gave a relative viability (NCI-H1993; first compound 0.003162 µM) of 0.863, a relative viability (NCI-H1993; first compound 0.01 µM) of 0.77 and a relative viability (NCI-H1993; first compound 0.03162 µM) of 0.874. It also gave a relative viability (NCI-H1993; first compound 0.1 µM) of 0.651, a relative viability (SK-LU-1; first compound 0.001 µM) of 0.769 and a relative viability (SK-LU-1; first compound 0.003162 µM) of 0.855. For the same molecule, the relative viability (SK-LU-1; first compound 0.01 µM) was 1.08, the relative viability (SK-LU-1; first compound 0.03162 µM) was 0.558 and the relative viability (SK-LU-1; first compound 0.1 µM) was 0.6. For the same molecule, the relative viability (NCI-H1437; first compound 0.001 µM) was 0.687, the relative viability (NCI-H1437; first compound 0.003162 µM) was 0.973 and the relative viability (NCI-H1437; first compound 0.01 µM) was 0.858. For the same molecule, the relative viability (NCI-H1437; first compound 0.03162 µM) was 0.614, the relative viability (NCI-H1437; first compound 0.1 µM) was 0.203 and the relative viability (NCI-H460; first compound 0.001 µM) was 0.521. It also gave a relative viability (NCI-H460; first compound 0.03162 µM) of 0.378 and a relative viability (NCI-H460; first compound 0.1 µM) of 0.0571.
